Source: PubChem BioAssay (NCI)
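Cells were grown in 96-well plates and exposed to each compound for 48 hours at five concentrations; endpoints were interpolated linearly between bracketing concentrations, or set to the highest concentration if not reached. Here, GI50 denotes the concentration required for 50% inhibition of growth. TGI is the concentration that stops growth completely.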 *1 amine or outer side, *2 acyl side, *3 side chain or, on linkers, in order; H or OH if unused. Where a SMILES comes first, the peptide text is derived from it. Bridges are numbered along the chain shown (N, C = ends). [ ]: non-standard residue; d: D form. The star is where a group is joined. Phe(3,5-F2) = N[C@@H](Cc1cc(F)cc(F)c1)C(=O)O; Pro(4R-Me) = C[C@H]1CN[C@H](C(=O)O)C1; aThr = C[C@H](O)[C@H](N)C(=O)O; Pip = O=C(O)[C@@H]1CCCCN1; X10 = Fc1cc(C2CC2)ccc1N*; CO = O=C([*:1])[*:2]

Columns and labels:
Assay in all cases: NCI-60 cell line screen, 48 h
PC-3 prostate = system: PC-3 prostate
MCF7 breast = system: MCF7 breast
OVCAR-3 ovarian = system: OVCAR-3 ovarian
NCI-H522 lung = system: NCI-H522 lung
RXF 393 renal = system: RXF 393 renal
BT-549 breast = system: BT-549 breast
SR leukemia = system: SR leukemia
MDA-MB-231 breast = system: MDA-MB-231 breast
CAKI-1 renal = system: CAKI-1 renal
RPMI-8226 leukemia = system: RPMI-8226 leukemia

SMILES | GI50 (PC-3 prostate) | TGI (PC-3 prostate) | GI50 (MCF7 breast) | TGI (MCF7 breast) | GI50 (OVCAR-3 ovarian) | TGI (OVCAR-3 ovarian) | GI50 (NCI-H522 lung) | TGI (NCI-H522 lung) | GI50 (RXF 393 renal) | TGI (RXF 393 renal) | GI50 (BT-549 breast) | TGI (BT-549 breast) | GI50 (SR leukemia) | TGI (SR leukemia) | GI50 (MDA-MB-231 breast) | TGI (MDA-MB-231 breast) | GI50 (CAKI-1 renal) | TGI (CAKI-1 renal) | GI50 (RPMI-8226 leukemia) | TGI (RPMI-8226 leukemia)
COc1cc2c(cc1OCCCCN1CCN(CC(=O)Nc3ccc(Cl)cc3C(=O)c3ccccc3Cl)CC1)N=CC1CCCN1C2=O (stereo unspecified) | 0.238 µM | 0.547 µM | 0.167 µM | 0.567 µM | 0.197 µM | 0.435 µM | 0.107 µM | 0.316 µM | 0.186 µM | 0.388 µM | 0.292 µM | 0.799 µM | 0.138 µM | 0.456 µM | 0.251 µM | 0.759 µM | 0.28 µM | 0.676 µM | 0.0573 µM | 0.173 µM
CCN1/C(=C\c2cc[n+](CC)c3ccccc23)C=Cc2ccccc21 | 0.117 µM | 1.85 µM | 0.114 µM | 1.85 µM | 0.118 µM | 1.08 µM | 0.197 µM | 10.3 µM | 0.333 µM | 4.27 µM | 0.0811 µM | 1.5 µM | 0.152 µM | 4.86 µM | 0.273 µM | 10.2 µM | 4.71 µM | 22.5 µM | 0.0503 µM | 0.753 µM
CN1CCCCC1CCN1c2ccccc2Sc2ccc(Cl)cc21 (stereo unspecified) | 3.22 µM | 11.7 µM | 2.68 µM | 9 µM | 4.04 µM | 14.6 µM | 2.31 µM | 7.37 µM | 3.18 µM | 8.47 µM | 10.4 µM | 23.3 µM | 3.2 µM |  | 2.09 µM | 6.32 µM | 3.63 µM | 15.8 µM | 3.17 µM | 9.29 µM
COc1cccc(-c2cc(-c3cccc(NS(C)(=O)=O)c3)nc(N)c2C#N)c1O | 0.111 µM | > 100 µM | 0.279 µM | > 100 µM |  |  | 0.0163 µM | 0.075 µM | 0.104 µM | 1.39 µM | 0.716 µM | > 47.4 µM | 0.0562 µM | > 100 µM | 0.815 µM | > 100 µM | 0.141 µM | 88.9 µM | 0.268 µM | 11.8 µM
Nc1ccccc1C#C/C=C\C#Cc1ccccc1OC(F)(F)F | 5.98 µM | > 100 µM | 3.67 µM | > 100 µM | 3.49 µM | 20.5 µM | 3.47 µM | 14 µM | 4.39 µM | 23.9 µM | 5.78 µM | 22.5 µM | 1.63 µM | 13.9 µM | 5.34 µM | 24.7 µM | 4.42 µM | 28.2 µM | 3.55 µM | 18 µM
C=CCOc1ccc2c(C)cc(=O)oc2c1C |  | > 100 µM |  | > 100 µM |  | > 100 µM |  | 81.4 µM |  | 63.9 µM |  | > 100 µM |  | > 100 µM |  | > 100 µM |  | > 100 µM |  | > 100 µM
COc1cc2c(c3oc4c(O)cccc4c(=O)c13)CC(C(C)(O)CO)O2 (stereo unspecified) |  | > 100 µM |  | 70.8 µM |  | > 100 µM |  | > 100 µM |  | 79.8 µM |  | > 100 µM |  | > 100 µM |  | > 100 µM |  | > 100 µM |  | > 100 µM
CO/C(=N\N=C\c1ccc(C(F)(F)F)cc1)c1ccncc1 |  | > 10 µM |  | > 10 µM |  | > 10 µM |  | > 10 µM |  | > 10 µM |  | > 10 µM |  | > 10 µM |  | > 10 µM |  | > 10 µM |  | > 10 µM
Cc1cc(-c2nc(C(=O)Nc3cc4oc(N5CCOCC5)nc4nc3N3CC[C@@H](O)C3)co2)ccn1 | 26.9 µM | > 100 µM | 84.1 µM | > 100 µM | 27 µM | > 100 µM | 20 µM | > 100 µM | 17.9 µM | > 100 µM | 33 µM | > 100 µM | 30.9 µM | > 100 µM | 45.6 µM | > 100 µM | 17.1 µM | 71.6 µM | 25.8 µM | > 100 µM
O=C(Nc1ccc(-n2ccc3c(NC(=O)c4ccccc4)nccc32)cc1)c1ccc(Cl)c(C(F)(F)F)c1 | 2.56 µM | 24.8 µM | 0.288 µM | 1.24 µM | 1.35 µM | 10 µM | 0.811 µM | 9.59 µM | 1.01 µM | 9.64 µM | 6.5 µM | > 50 µM | 0.0545 µM | > 12.7 µM | 5.09 µM | 15 µM | 0.305 µM | 11.8 µM | 0.231 µM | 5.54 µM
Cc1ccnc2c1ccc1c(C)ccnc12 | 0.43 µM | 15.5 µM | 0.343 µM | 12.4 µM | 0.526 µM | 11.4 µM | 0.608 µM | 4.97 µM | 0.729 µM | 15.1 µM | 0.521 µM | 14.3 µM | 0.382 µM | > 100 µM | 0.673 µM | 21.3 µM | 0.209 µM | 10 µM | 0.468 µM | 14.3 µM
COc1ccc2c(c1)sc1nc(-c3ccccc3)c(-c3cccc4ccccc34)n12 | 0.5 µM | > 100 µM | 0.835 µM | > 33.4 µM | 0.35 µM | 1.46 µM | 0.661 µM | 28.2 µM | 0.249 µM | 1.29 µM | 1.15 µM | > 93.2 µM | 0.323 µM | > 100 µM | 1.32 µM | > 100 µM | 0.792 µM | > 100 µM | 0.99 µM | 27.4 µM
C[C@@H]1C[C@H]2C(=O)O[C@@H](C)[C@H](NC(=O)[C@H](Cc3cc(F)cc(F)c3)NC(=O)Nc3ccc(C4CC4)cc3F)C(=O)N3CCC[C@H]3C(=O)N3CCCC[C@H]3C(=O)N[C@@H](C)C(=O)N2C1 ({X10-CO}-[Phe(3,5-F2)][aThr]P[Pip]A[Pro(4R-Me)]; ester 2-C) | 0.0355 µM | > 36 µM | 0.0381 µM | 13.9 µM | 0.043 µM | 3.27 µM | 0.0441 µM |  | 0.233 µM | 3.99 µM | 0.0588 µM | > 22.4 µM | 0.0633 µM | 5.67 µM | 0.0402 µM | 1.3 µM | 0.04 µM | 10.3 µM | 0.0287 µM | 0.878 µM
